Results published in patent EP2108954A1, “A test system for detecting intracellular cyclic nucleotide level and methods and uses thereof” (Max-Planck-Gesellschaft zur Förderung der Wissenschaften …, priority 2008, dated 2009).
Where two headings read alike, the source gives them in different places.

Biological target: T1, Or22a and Or83b (Drosophila melanogaster, UniProt P81909+Q9VNB5)
T1 construct: expressed in transfected cells; host or cells: HEK293
T1 sequence (P81909 1-397): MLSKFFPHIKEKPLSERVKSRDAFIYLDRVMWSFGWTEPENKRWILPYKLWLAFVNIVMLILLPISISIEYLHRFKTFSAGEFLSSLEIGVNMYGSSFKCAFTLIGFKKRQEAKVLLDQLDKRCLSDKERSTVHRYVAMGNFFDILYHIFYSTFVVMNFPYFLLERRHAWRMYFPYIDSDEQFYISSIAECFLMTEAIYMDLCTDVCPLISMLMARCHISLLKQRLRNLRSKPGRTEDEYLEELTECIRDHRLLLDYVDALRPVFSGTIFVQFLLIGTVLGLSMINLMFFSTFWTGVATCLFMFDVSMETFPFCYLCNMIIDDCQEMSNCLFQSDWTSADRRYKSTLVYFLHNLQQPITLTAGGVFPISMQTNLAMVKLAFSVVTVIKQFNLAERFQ
T1 sequence (Q9VNB5 1-486): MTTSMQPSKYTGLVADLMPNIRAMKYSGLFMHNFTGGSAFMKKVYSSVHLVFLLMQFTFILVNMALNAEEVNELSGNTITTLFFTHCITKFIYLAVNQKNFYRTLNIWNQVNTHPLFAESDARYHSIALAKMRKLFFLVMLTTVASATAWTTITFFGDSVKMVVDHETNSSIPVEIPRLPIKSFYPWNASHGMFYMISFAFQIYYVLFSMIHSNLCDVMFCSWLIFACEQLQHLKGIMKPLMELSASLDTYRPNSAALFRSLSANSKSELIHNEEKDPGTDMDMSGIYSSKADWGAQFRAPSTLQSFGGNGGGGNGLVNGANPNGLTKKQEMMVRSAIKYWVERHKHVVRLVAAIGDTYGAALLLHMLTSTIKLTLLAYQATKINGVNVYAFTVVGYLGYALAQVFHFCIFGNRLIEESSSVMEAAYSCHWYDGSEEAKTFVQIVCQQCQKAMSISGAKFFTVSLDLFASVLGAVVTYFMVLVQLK
Experiment: Whole-cell patch-clamp of currents in HEK293 cells coexpressing Or22a and Or83b
Format: cell-based
Description: In some experiments we transfected cells with pcDNA3-DOR22a-GFP or pcDNA3-DOR83b-GFP alone. We also examined the properties of DOR47a, which was cloned, using standard molecular biology methods into a pcDNA3.1(-) expression vector. To test for putative G-protein coupling, cells were transfected with the respective OR-DNA together with 1.5 µg hHCN2/pcDNA3 (provided by M. Biel, Munich, Germany), with 1 µg hKCNQ4/pcDNA3.1 or with 1 µg hCNGA2/pCMV6-XL4 (Origene, Rockville, MD, USA).
In brief, ion currents in HEK293 cells were measured at room temperature using whole-cell patch-clamp with appropriate compensation of series resistance and of capacitive currents. Additional experiments were performed in the outside-out configuration. Current measurements and data acquisition were performed using an EPC9 patch-clamp amplifier controlled by PatchMaster software (both HEKA Elektronik, Lambrecht, Germany). Patch-clamp pipettes were fabricated from borosilicate capillaries. Pipettes for whole-cell recordings had resistances of 2-4 MΩ for excised-patch recordings the pipette resistance was up to 15 MΩ.
To differentiate between ionotropic and metabotropic pathways of receptor activation (Fig. 2a-d) the pipette solution contained either 2 mM ATP plus 2 mM GTP or 2 mM ADP plus 2 mM GDP (both for whole-cell and outside-out configuration). For the preparation of Cl^--free solutions the chloride salts were substituted by gluconate salts. The pipette Cs^+ solution contained (in mM) 140 CsCl, 1 Mg-ATP, 10 EGTA, 10 HEPES (pH = 7.3), and the Cs^+ bath solution contained (in mM) 140 CsCl, 15 glucose, 15 HEPES (pH = 7.4). The Ca^2+-free bath solution contained (in mM) 140 NaCl, 15 glucose, 15 HEPES, and the Na^+-free bath solution contained (in mM) 140 NMDG-Cl, 10 CaCl2, 10 glucose, 15 HEPES.
With the exception of GDP-γ-S, which was applied via the patch pipette, all substances were applied to the bath using either a bath perfusion system (BPS4 from ALA, New York, USA) or a rapid solution changer (RSC160 from Biologic, Claix, France) which were controlled by the PatchMaster software (HEKA Elektronik).

[1] = Etb 100 nM, 1 s, whole-cell, -60 mV, Or22a C-terminal GFP fusion protein, ADP and GDP (-)
[2] = Etb 100 nM, 1 s, whole-cell, -60 mV, Or22a C-terminal GFP fusion protein, ATP and GTP (+)
[3] = Etb 100 nM, 1 s, whole-cell, -60 mV, Or22a N-terminal GFP fusion protein, ADP and GDP (-)
[4] = Etb 100 nM, 1 s, whole-cell, -60 mV, Or22a N-terminal GFP fusion protein, ATP and GTP (+)
[5] = short Etb application, whole-cell, -60 mV, Tab. 1
[6] = short Etb application, whole-cell, -60 mV, internal ATP and GTP, Tab. 1

CCCC(=O)OCC [Etb, ethyl butyrate]
further increase of current (100 µM Etb after stimulation with 100 µM 8-bromo-cAMP): +1.6 ± 3.8 % of current induced by 8-bromo-cAMP | Etb-induced current in symmetrical Cs+ solutions (140 mM Cs+ in pipette and bath solution, n = 6): No current was detected | EC50 (EC50 of Etb-induced currents, 500 µM GDP-β-S in the pipette, n = 11): 70 nM | latency of Ii (Etb 100 nM, 1 s, whole-cell, -60 mV): < 0.5 s | Ii Decay time [1]: 10.8 ± 0.6 s | Ii Peak size [1]: 133 ± 51 pA | Ii Peak time [1]: 1.13 ± 0.02 s | Im Decay time [1]: 68 ± 8 s | Im Latency [1]: 18 ± 8 s | Im Peak size [1]: 77 ± 7 PA | Im Peak time [1]: 43 ± 9 s | Ii Decay time [2]: 10.5 ± 0.7 s | Ii Peak size [2]: 100 ± 23 pA | Ii Peak time [2]: 1.10 ± 0.03 s | Im Decay time [2]: 79 ± 5 s | Im Latency [2]: 10 ± 2 s | Im Peak size [2]: 291 ± 54 PA | Im Peak time [2]: 58 ± 4 s | Ii Decay time [3]: 10.4 ± 0.9 s | Ii Peak size [3]: 132 ± 38 pA | Ii Peak time [3]: 0.90 ± 0.17 s | Im Decay time [3]: 63 ± 9 s | Im Latency [3]: 24 ± 5 s | Im Peak size [3]: 51 ± 6 PA | Im Peak time [3]: 44 ± 6 s | Ii Decay time [4]: 10.2 ± 0.9 s | Ii Peak size [4]: 98 ± 23 pA | Ii Peak time [4]: 1.16 ± 0.06 s | Im Decay time [4]: 80 ± 8 s | Im Latency [4]: 11 ± 3 s | Im Peak size [4]: 311 ± 51 PA | Im Peak time [4]: 62 ± 9 s | Hill coefficient of olfactory receptor current (ORC) (cells coexpressing Or22a, Or83b and hKCNQ4, n = 6): 0.41 | EC50 (cells coexpressing Or22a, Or83b and hKCNQ4, normalized to maximum response, n = 6, read-out: EC50 of olfactory receptor current (ORC)): 0.256 nM | Hill coefficient of Etb-induced currents (control conditions, n = 9): 0.61 | EC50 (control conditions, n = 9, read-out: EC50 of Etb-induced currents): 0.677 nM | EC50 (half-maximal effect (current size), metabotropic current response): ~0.7 nM | odorant concentration at which current size saturates (metabotropic current response, Fig. 2f): about 100 nM | odour-induced current in Cl^--free solutions (n = 5): remained unchanged | Ii peak [5]: 1 s | Ii termination [5]: 10 s | Im Latency [6]: 10 s | Im peak [6]: 60 s | Im termination [6]: 80 s
